pEC50: −log10 of the molar value.

What all share (type): cell-based
For one experiment, the system named is MDA-MB-231 cells. The experiment is described as follows: MDA-MB-231 cell proliferation assay (Cell-Titer-Glo, 120 hr). Conditions: for pEC50: Homo sapiens, MDA-MB-231, 120 h, read-out: MDA-MB 231 Cell Prolif. 120 hr EC50; for MDA-MB 231 Cell Prolif. 120 hr YMin (%): minimal percent of DMSO control observed. In a few lines:
(§1)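 Growth inhibition was read as CellTiter-Glo luminescence after 120 h at 37 °C in RPMI/10% FBS, with 400 MKN45 or 800 MDA-MB-231 cells seeded per well. Compounds were tested in 10-point half-log series starting at 1 or 10 uM (0.1% DMSO), in triplicate for MKN45 and duplicate for MDA-MB-231. EC50 values are four-parameter fits to %DMSO control, and Ymin-obs is the minimal observed %DMSO.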

A further experiment deals with T1, WEE1 (Homo sapiens, UniProt P30291+Q96SW2).
T1 construct: C-terminal ePL-tagged (DiscoverX, Fremont, CA) full-length WEE1 expression construct; expressed in transfected cells; host or cells: LentiX-HEK293T (Invitrogen), lentivirally transduced; the cells also over-express GSPT1-GN
T1 sequence (P30291 whole entry): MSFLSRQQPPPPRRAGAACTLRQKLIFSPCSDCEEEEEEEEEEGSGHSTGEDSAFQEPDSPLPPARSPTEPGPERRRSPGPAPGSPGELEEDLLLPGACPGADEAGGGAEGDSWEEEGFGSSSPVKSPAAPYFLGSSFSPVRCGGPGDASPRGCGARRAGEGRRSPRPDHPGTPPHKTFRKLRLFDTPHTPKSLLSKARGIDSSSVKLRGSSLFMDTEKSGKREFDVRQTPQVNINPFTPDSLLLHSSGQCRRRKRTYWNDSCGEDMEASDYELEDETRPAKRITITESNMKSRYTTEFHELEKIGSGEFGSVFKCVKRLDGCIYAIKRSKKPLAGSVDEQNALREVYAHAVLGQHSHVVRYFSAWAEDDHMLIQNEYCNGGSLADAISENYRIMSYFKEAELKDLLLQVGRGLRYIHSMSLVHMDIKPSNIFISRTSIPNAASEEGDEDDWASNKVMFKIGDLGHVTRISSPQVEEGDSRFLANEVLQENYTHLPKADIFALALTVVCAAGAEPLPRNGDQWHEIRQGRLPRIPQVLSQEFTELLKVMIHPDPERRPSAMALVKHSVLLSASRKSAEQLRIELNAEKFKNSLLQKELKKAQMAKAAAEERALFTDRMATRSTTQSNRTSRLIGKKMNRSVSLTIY
T1 sequence (Q96SW2 whole entry): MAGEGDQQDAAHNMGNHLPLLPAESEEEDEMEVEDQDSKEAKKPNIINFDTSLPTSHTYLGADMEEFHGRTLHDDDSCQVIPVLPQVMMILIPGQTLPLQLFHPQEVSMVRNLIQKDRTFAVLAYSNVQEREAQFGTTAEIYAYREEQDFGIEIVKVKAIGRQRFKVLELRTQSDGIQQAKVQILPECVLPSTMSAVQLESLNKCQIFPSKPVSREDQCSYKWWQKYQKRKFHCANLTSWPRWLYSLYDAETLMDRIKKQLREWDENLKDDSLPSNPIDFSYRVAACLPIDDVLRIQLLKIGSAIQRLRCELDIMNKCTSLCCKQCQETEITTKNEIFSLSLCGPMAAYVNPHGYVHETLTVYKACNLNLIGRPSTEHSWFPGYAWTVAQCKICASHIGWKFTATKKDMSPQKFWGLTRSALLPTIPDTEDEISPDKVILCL
T1 sequence (Q16531 whole entry partner): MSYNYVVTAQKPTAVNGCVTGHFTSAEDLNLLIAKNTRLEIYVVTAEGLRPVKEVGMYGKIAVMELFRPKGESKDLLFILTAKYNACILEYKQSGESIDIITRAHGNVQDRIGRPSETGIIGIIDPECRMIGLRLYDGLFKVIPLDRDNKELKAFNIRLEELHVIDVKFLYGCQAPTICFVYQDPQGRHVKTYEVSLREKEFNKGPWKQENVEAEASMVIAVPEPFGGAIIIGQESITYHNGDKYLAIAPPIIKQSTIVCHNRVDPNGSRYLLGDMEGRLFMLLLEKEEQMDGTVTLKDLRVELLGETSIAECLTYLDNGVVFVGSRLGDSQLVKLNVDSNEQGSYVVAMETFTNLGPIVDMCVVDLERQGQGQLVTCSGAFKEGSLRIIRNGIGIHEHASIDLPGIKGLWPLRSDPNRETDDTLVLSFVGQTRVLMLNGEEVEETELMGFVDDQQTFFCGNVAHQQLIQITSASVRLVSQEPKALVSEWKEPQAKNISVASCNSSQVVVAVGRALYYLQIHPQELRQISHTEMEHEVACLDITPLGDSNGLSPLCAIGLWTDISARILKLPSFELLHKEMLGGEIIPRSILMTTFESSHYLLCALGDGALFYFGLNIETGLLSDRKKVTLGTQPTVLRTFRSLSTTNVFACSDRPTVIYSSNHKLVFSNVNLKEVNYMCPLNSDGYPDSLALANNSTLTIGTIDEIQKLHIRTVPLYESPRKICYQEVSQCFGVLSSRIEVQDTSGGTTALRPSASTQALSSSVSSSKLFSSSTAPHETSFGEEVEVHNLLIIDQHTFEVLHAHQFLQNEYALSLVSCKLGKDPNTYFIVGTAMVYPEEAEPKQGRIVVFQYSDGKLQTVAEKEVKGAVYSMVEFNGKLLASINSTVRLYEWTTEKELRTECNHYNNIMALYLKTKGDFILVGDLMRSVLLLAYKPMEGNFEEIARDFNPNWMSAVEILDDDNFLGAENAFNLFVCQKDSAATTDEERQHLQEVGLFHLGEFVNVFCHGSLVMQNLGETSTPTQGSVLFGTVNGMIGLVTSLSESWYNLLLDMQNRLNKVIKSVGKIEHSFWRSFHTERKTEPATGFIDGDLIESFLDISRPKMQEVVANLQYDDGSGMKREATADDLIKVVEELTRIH
The experiment is described as follows: WEE1-ePL degradation assay (293T-LentiX, InCELL Hunter luminescence, 4 hr). Conditions: for DC50: LentiX-HEK293T cells expressing WEE1-ePL, 4 hr incubation, read-out: 293T-LentiX WEE1-ePL Degradation 4 hr EC50; for 293T-LentiX WEE1-ePL Degradation 4 hr YMin (%): lower limit of fit, % of DMSO control signal remaining. An outline of the steps:
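EC50 comes from a four-parameter logistic fit of ePL luminescence (InCELL Hunter), with DMSO control defining Ymax. Compounds ran as 10-point 3-fold dilutions from 1 or 10 µM for 4 h at 37 °C. Cells were HEK293T-LentiX with ePL-tagged full-length WEE1 and over-expressed Cereblon-resistant GSPT1-GN.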

For a further experiment, the system named is MKN45 cells. Kind of experiment: MKN45 cell proliferation assay (Cell-Titer-Glo, 120 hr). Conditions: for pEC50: Homo sapiens, MKN-45, 120 h, read-out: MKN45 Cell Prolif. 120 hr EC50; for MKN45 Cell Prolif. 120 hr YMin (%): minimal percent of DMSO control observed. In a few lines: as §1

On to `O=C1CC[C@H](N2Cc3cc(O[C@@H]4CN(Cc5ccc6nc(N7C[C@H]8CCO[C@H]8C7)ccc6c5)CC4(F)F)ccc3C2=O)C(=O)N1` (single isomer, unassigned) [Example 6, (S)-3-(5-(((R)-4,4-difluoro-1-((2-((3aR*,6aR*)-hexahydro-5H-furo[2,3-c]pyrrol-5-yl)quinolin-6-yl)methyl)pyrrolidin-3-yl)oxy)-1-oxoisoindolin-2-yl)piperidine-2,6-dione], for which, in the experiment on MDA-MB-231 cells, the negative-log EC50 (pEC50) is 7.20 and the “MDA-MB 231 Cell Prolif. 120 hr YMin (%)” value worked out at 62.4%. Further, at WEE1, the DC50 stood at 2 nM and the “293T-LentiX WEE1-ePL Degradation 4 hr YMin (%)” value is on record as 27.4%. In addition, in the experiment with MKN45 cells, the pEC50 was 8.30 and the “MKN45 Cell Prolif. 120 hr YMin (%)” value is on record as 11.8%.
In the case of `O=C1CC[C@H](N2Cc3cc(O[C@H]4CCN(Cc5cc(F)c6nc(N7C[C@H]8CCO[C@H]8C7)ccc6c5)C4)ccc3C2=O)C(=O)N1` (single isomer, unassigned) [Example 7, (S)-3-(5-(((S)-1-((8-fluoro-2-((3aR*,6aR*)-hexahydro-5H-furo[2,3-c]pyrrol-5-yl)quinolin-6-yl)methyl)pyrrolidin-3-yl)oxy)-1-oxoisoindolin-2-yl)piperidine-2,6-dione], in the experiment with MDA-MB-231 cells, the pEC50 was 7.13 and the “MDA-MB 231 Cell Prolif. 120 hr YMin (%)” value is reported as 64.0%. In addition, on WEE1, the DC50 was determined as 1 nM and the “293T-LentiX WEE1-ePL Degradation 4 hr YMin (%)” value is given as 31.9%. In the experiment with MKN45 cells, the pEC50 is 8.30 and the “MKN45 Cell Prolif. 120 hr YMin (%)” value is listed as 13.7%.
As to `COC[C@@H]1CN(Cc2ccc3nc(N4C[C@H]5CCO[C@H]5C4)ncc3c2)C[C@H]1Oc1ccc2c(c1)CN([C@H]1CCC(=O)NC1=O)C2=O` (single isomer, unassigned) [Example 8, (S)-3-(5-(((3S,4S)-1-((2-((3aR*,6aR*)-hexahydro-5H-furo[2,3-c]pyrrol-5-yl)quinazolin-6-yl)methyl)-4-(methoxymethyl)pyrrolidin-3-yl)oxy)-1-oxoisoindolin-2-yl)piperidine-2,6-dione], in the experiment on MDA-MB-231 cells, the pEC50 was 6.98 and the “MDA-MB 231 Cell Prolif. 120 hr YMin (%)” value was 31.9%. Also, on WEE1, the DC50 was found to be 4 nM and the “293T-LentiX WEE1-ePL Degradation 4 hr YMin (%)” value is reported as 27.5%. In the experiment with MKN45 cells, the pEC50 was 8.22 and the “MKN45 Cell Prolif. 120 hr YMin (%)” value was 10.0%.
For the molecule `O=C1CC[C@H](N2Cc3cc(O[C@H]4CCN(Cc5cc(F)c6nc(N7C[C@H]8CCO[C@H]8C7)ncc6c5)C4)ccc3C2=O)C(=O)N1` (single isomer, unassigned) [Example 9, (S)-3-(5-(((S)-1-((8-fluoro-2-((3aR*,6aR*)-hexahydro-5H-furo[2,3-c]pyrrol-5-yl)quinazolin-6-yl)methyl)pyrrolidin-3-yl)oxy)-1-oxoisoindolin-2-yl)piperidine-2,6-dione], in the experiment on MDA-MB-231 cells, the pEC50 is 6.44 and the “MDA-MB 231 Cell Prolif. 120 hr YMin (%)” value was determined as 45.1%. Also, at WEE1, the DC50 was determined as 6 nM and the “293T-LentiX WEE1-ePL Degradation 4 hr YMin (%)” value was determined as 32.4%. In addition, in the experiment with MKN45 cells, the pEC50 is 7.96 and the “MKN45 Cell Prolif. 120 hr YMin (%)” value is given as 11.7%.
Consider `COC[C@@H]1CN(Cc2cc(F)c3nc(N4C[C@H]5CCO[C@H]5C4)ncc3c2)C[C@H]1Oc1ccc2c(c1)CN([C@H]1CCC(=O)NC1=O)C2=O` (single isomer, unassigned) [Example 10, (S)-3-(5-(((3S,4S)-1-((8-fluoro-2-((3aR*,6aR*)-hexahydro-5H-furo[2,3-c]pyrrol-5-yl)quinazolin-6-yl)methyl)-4-(methoxymethyl)pyrrolidin-3-yl)oxy)-1-oxoisoindolin-2-yl)piperidine-2,6-dione], for which, in the experiment with MDA-MB-231 cells, the pEC50 was 7.15 and the “MDA-MB 231 Cell Prolif. 120 hr YMin (%)” value was determined as 24.6%. Also, on WEE1, the DC50 was 2 nM and the “293T-LentiX WEE1-ePL Degradation 4 hr YMin (%)” value was 27.8%. Also, in the experiment with MKN45 cells, the pEC50 is 8.70 and the “MKN45 Cell Prolif. 120 hr YMin (%)” value was found to be 10.6%.
With `O=C1CCC(N2C(=O)c3ccc(O[C@H]4CCN(Cc5cc(F)c6nc(C7CCOCC7)ccc6c5)C4)cc3C2=O)C(=O)N1` (single isomer, unassigned) [Example 11, 2-((S*)-2,6-dioxopiperidin-3-yl)-5-(((S)-1-((8-fluoro-2-(tetrahydro-2H-pyran-4-yl)quinolin-6-yl)methyl)pyrrolidin-3-yl)oxy)isoindoline-1,3-dione], in the experiment on MDA-MB-231 cells, the pEC50 was 6.28 and the “MDA-MB 231 Cell Prolif. 120 hr YMin (%)” value was found to be 53.2%. At WEE1, the DC50 turned out to be 4 nM and the “293T-LentiX WEE1-ePL Degradation 4 hr YMin (%)” value came out at 30.4%. In addition, in the experiment with MKN45 cells, the pEC50 was 7.48 and the “MKN45 Cell Prolif. 120 hr YMin (%)” value was 12.1%.
Consider `COC[C@@H]1CN(Cc2cc(F)c3nc(N4C[C@@H]5CCO[C@@H]5C4)ncc3c2)C[C@H]1Oc1ccc2c(c1)CN([C@H]1CCC(=O)NC1=O)C2=O` (single isomer, unassigned) [Example 13, (S)-3-(5-(((3S,4S)-1-((8-fluoro-2-((3aS*,6aS*)-hexahydro-5H-furo[2,3-c]pyrrol-5-yl)quinazolin-6-yl)methyl)-4-(methoxymethyl)pyrrolidin-3-yl)oxy)-1-oxoisoindolin-2-yl)piperidine-2,6-dione], for which, in the experiment on MDA-MB-231 cells, the pEC50 is 7.21 and the “MDA-MB 231 Cell Prolif. 120 hr YMin (%)” value is reported as 37.3%. On WEE1, the DC50 amounted to 1 nM and the “293T-LentiX WEE1-ePL Degradation 4 hr YMin (%)” value was determined as 22.1%. In the experiment on MKN45 cells, the negative-log EC50 (pEC50) is 8.52 and the “MKN45 Cell Prolif. 120 hr YMin (%)” value is given as 11.9%.
As for `O=C1CC[C@H](N2Cc3cc(O[C@@H]4CN(Cc5cc(F)c6nc(N7C[C@H]8CCO[C@H]8C7)ccc6c5)CC4(F)F)ccc3C2=O)C(=O)N1` (single isomer, unassigned) [Example 14, (S)-3-(5-(((R)-4,4-difluoro-1-((8-fluoro-2-((3aR*,6aR*)-hexahydro-5H-furo[2,3-c]pyrrol-5-yl)quinolin-6-yl)methyl)pyrrolidin-3-yl)oxy)-1-oxoisoindolin-2-yl)piperidine-2,6-dione], in the experiment on MDA-MB-231 cells, the pEC50 is 7.20 and the “MDA-MB 231 Cell Prolif. 120 hr YMin (%)” value turned out to be 34.4%. Further, on WEE1, the DC50 is 3 nM and the “293T-LentiX WEE1-ePL Degradation 4 hr YMin (%)” value is listed as 31.8%. In the experiment on MKN45 cells, the pEC50 was 8.22 and the “MKN45 Cell Prolif. 120 hr YMin (%)” value came out at 10.2%.
As to `O=C1CC[C@H](N2Cc3cc(O[C@@H]4CN(Cc5cc(F)c6nc(N7C[C@@H]8CCO[C@@H]8C7)ccc6c5)CC4(F)F)ccc3C2=O)C(=O)N1` (single isomer, unassigned) [Example 15, (S)-3-(5-(((R)-4,4-difluoro-1-((8-fluoro-2-((3aS*,6aS*)-hexahydro-5H-furo[2,3-c]pyrrol-5-yl)quinolin-6-yl)methyl)pyrrolidin-3-yl)oxy)-1-oxoisoindolin-2-yl)piperidine-2,6-dione], in the experiment with MDA-MB-231 cells, the pEC50 is 7.14 and the “MDA-MB 231 Cell Prolif. 120 hr YMin (%)” value was determined as 31.4%. Further, at WEE1, the DC50 worked out at 2 nM and the “293T-LentiX WEE1-ePL Degradation 4 hr YMin (%)” value was 28.4%. Also, in the experiment on MKN45 cells, the pEC50 is 8.22 and the “MKN45 Cell Prolif. 120 hr YMin (%)” value is 8.8%.
Regarding `COC[C@@H]1CN(Cc2ccc3nc(N4C[C@@H]5CCO[C@@H]5C4)ccc3c2)C[C@H]1Oc1ccc2c(c1)CN([C@H]1CCC(=O)NC1=O)C2=O` (single isomer, unassigned) [Example 16, (S)-3-(5-(((3S,4S)-1-((2-((3aS*,6aS*)-hexahydro-5H-furo[2,3-c]pyrrol-5-yl)quinolin-6-yl)methyl)-4-(methoxymethyl)pyrrolidin-3-yl)oxy)-1-oxoisoindolin-2-yl)piperidine-2,6-dione], in the experiment with MDA-MB-231 cells, the pEC50 is 7.32 and the “MDA-MB 231 Cell Prolif. 120 hr YMin (%)” value was determined as 43.7%. In addition, the “293T-LentiX WEE1-ePL Degradation 4 hr YMin (%)” value on WEE1 amounted to 29.6%. Also, in the experiment on MKN45 cells, the pEC50 is 8.70 and the “MKN45 Cell Prolif. 120 hr YMin (%)” value amounted to 10.8%.
Consider `O=C1CC[C@H](N2Cc3cc(O[C@@H]4CN(Cc5ccc6nc(N7C[C@@H]8CCO[C@@H]8C7)ccc6c5)CC4(F)F)ccc3C2=O)C(=O)N1` (single isomer, unassigned) [Example 17, (S)-3-(5-(((R)-4,4-difluoro-1-((2-((3aS*,6aS*)-hexahydro-5H-furo[2,3-c]pyrrol-5-yl)quinolin-6-yl)methyl)pyrrolidin-3-yl)oxy)-1-oxoisoindolin-2-yl)piperidine-2,6-dione], for which, in the experiment with MDA-MB-231 cells, the pEC50 was 7.35 and the “MDA-MB 231 Cell Prolif. 120 hr YMin (%)” value is 47.2%. On WEE1, the DC50 stood at 2 nM and the “293T-LentiX WEE1-ePL Degradation 4 hr YMin (%)” value amounted to 25.6%. Moreover, in the experiment on MKN45 cells, the pEC50 is 8.30 and the “MKN45 Cell Prolif. 120 hr YMin (%)” value was 13.2%.
As for `COC[C@@H]1CN(Cc2ccc3nc(N4C[C@@H]5CCO[C@@H]5C4)ncc3c2)C[C@H]1Oc1ccc2c(c1)CN([C@H]1CCC(=O)NC1=O)C2=O` (single isomer, unassigned) [Example 18, (S)-3-(5-(((3S,4S)-1-((2-((3aS*,6aS*)-hexahydro-5H-furo[2,3-c]pyrrol-5-yl)quinazolin-6-yl)methyl)-4-(methoxymethyl)pyrrolidin-3-yl)oxy)-1-oxoisoindolin-2-yl)piperidine-2,6-dione], in the experiment on MDA-MB-231 cells, the pEC50 was 7.14 and the “MDA-MB 231 Cell Prolif. 120 hr YMin (%)” value is listed as 28.4%. At WEE1, the DC50 stood at 3 nM and the “293T-LentiX WEE1-ePL Degradation 4 hr YMin (%)” value amounted to 29.8%. For the same molecule, in the experiment with MKN45 cells, the pEC50 was 8.15 and the “MKN45 Cell Prolif. 120 hr YMin (%)” value is recorded as 10.1%.

By pEC50 is commonly meant the negative decadic logarithm of the EC50, by convention in mol/L.
